# Values joined by “and” are separate entries in the source; they are usually repeats but may differ in a detail not shown here. Equal entries are not always repeated.
# What was measured:
# GPR139 [1] = molecular target: T1, GPR139 (Homo sapiens, UniProt Q6DWJ6); assay: Ca2+ mobilization assay, agonist mode, stable GPR139-CHOk1 cell line; type: cell-based
# T1 sequence (Q6DWJ6 1-353): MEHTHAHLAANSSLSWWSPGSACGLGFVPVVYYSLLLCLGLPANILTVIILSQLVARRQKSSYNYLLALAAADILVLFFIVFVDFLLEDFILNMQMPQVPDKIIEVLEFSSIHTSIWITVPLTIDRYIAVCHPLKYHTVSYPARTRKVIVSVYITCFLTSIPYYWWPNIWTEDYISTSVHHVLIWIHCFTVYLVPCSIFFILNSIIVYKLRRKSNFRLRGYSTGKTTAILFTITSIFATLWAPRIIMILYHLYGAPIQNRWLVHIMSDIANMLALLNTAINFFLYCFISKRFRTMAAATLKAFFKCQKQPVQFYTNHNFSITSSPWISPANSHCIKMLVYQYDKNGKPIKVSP
# Experimental: Primary screening and pharmacological characterization of compounds were performed using a CHO-K1 cell line that stably expresses human GPR139 (GPR139-CHOk1). The GPR139-CHOk1 cell line was kindly provided by H. Lundbeck A/S, Denmark[24]. GPR139-CHOk1 cells were grown in Ham’s F-12 Kaighn’s Modification Medium (ThermoFisher #21127030) supplemented with 10% dialyzed fetal bovine serum (US origin, ThermoFisher #26400044), 100 units/mL Penicillin-Streptomycin (ThermoFisher #15140122), and 1 mg/mL Geneticin (ThermoFisher #11811031). […] M1R-CHOk1 cells were purchased from The Missouri S&T cDNA Resource Center (#CEM100TN00). M1R-CHOk1 cells were grown in Ham’s F12 Medium (ThermoFisher #21765029) supplemented with 10% fetal bovine serum (Brazilian origin, ThermoFisher #10270106), 100 units/mL Penicillin-Streptomycin, and 0.25 mg/mL Geneticin. HEK293A cells transiently transfected with GPR139 were used for additional pharmacological assessment of signaling pathways activated by GPR139. HEK239A cells were generously provided by Dr. Asuka Inoue, Tohoku University, Japan. HEK293A cells were grown in Dulbecco’s Modified Eagle Medium (ThermoFisher #31966047) supplemented with 10% dialyzed fetal bovine serum and 100 units/mL Penicillin-Streptomycin. Cell lines were maintained at 37 °C in humidified incubator equilibrated with 5% CO2.
# (§1) 30,000 GPR139- or M1R-CHOk1 cells/well were seeded in black clear bottom tissue culture treated 96-well plates (Greiner #655090) and grown for 20–24 h. Cells were washed with HEPES buffer (Hank’s Balanced Salt Solution (HBBS) supplemented with 20 mM HEPES, 1 mM MgCl2, and 1 mM CaCl2; pH 7.4). Cells were loaded with 50 µL of 2 µM Fluo-4 AM dye (ThermoFisher #F14202) in HEPES buffer supplemented with 2.5 mM probenecid and 0.01% Pluronic F-68 (ThermoFisher #24040032) for 1 h at 37 °C. Cells were washed with HEPES buffer. 50 µL HEPES buffer supplemented with 2.5 mM probenecid was added, and the cells were incubated for 10 min at 37 °C before measurement. 50 µL test compounds diluted in HEPES buffer from DMSO stocks (final DMSO concentration of maximally 0.3%) were added automatically after baseline measurements. The intracellular calcium mobilization was measured on a FlexStation 3 Multimode Microplate Reader (Molecular Devices) at 37 °C with filters for excitation of 485 nm and emission of 525 nm.
# (§2) Our primary compound screening protocol consisted of two subsequent steps that allowed to screen for agonists and antagonists simultaneously. In the first step, the screening compounds were applied at 10 µM to test for agonist activity (agonist mode). Following 20 min incubation with the compounds added in the first step, in the second step, an EC80 concentration (800 nM) of the reference agonist Lundbeck Cmp 1a was applied to test for antagonist activity (antagonist mode).
# Pharmacological data and statistical analyses were performed in GraphPad Prism v9–10 (Graphpad Software Inc., San Diego, CA), which are also specifically described in the figure and table legends. The functional assay responses were normalized to buffer (0%) and Lundbeck Cmp 1a or JNJ-63533054 (100%), for Ca^2+ and IP1 experiments in the GPR139-CHOk1 stable cell line or Ca^2+, G protein activation, and arrestin-3 recruitment experiments in the HEK293A cells transiently transfected with GPR139, respectively. Data are from at least three independent experiments, unless stated otherwise. Concentration-response curves were fitted applying non-linear regression using the log (agonist) versus response model with variable slope. ANOVA was applied for comparing results and determining statistical significance.
# GPR139 [2] = molecular target: T1, GPR139; assay: Ca2+ mobilization assay, antagonist mode (EC80 800 nM Lundbeck Cmp 1a after 20 min preincubation), GPR139-CHOk1; type: cell-based; conditions: individual replicates (Supplementary Figure 1)
# Experimental: as §1
# as §2, with “(antagonist mode). In the agonist mode (first step) response is seen only with compounds having agonist activity (Cmp 1a), but not with non-receptor-binding compounds (Vehicle) or antagonists (NCRW0105-E06) (Supplementary Fig. 14). […] No antagonist compounds were identified in this study.” for “(antagonist mode).”
# [3] = Agonist mode, individual replicates (Supplementary Figure 1)
SMILES,Ca2+ signal (% of Cmp 1a) (GPR139 [1]; [3]),Ca2+ signal (% of Cmp 1a) (GPR139 [2]),"Ca2+ signal (% of Cmp 1a) (GPR139 [1]; primary screen, 10 µM compound, agonist mode, three columns = independent experiments)"
"Cc1ccc(NC(=O)C2Cc3ccccc32)cc1C(=O)N(C)C(C)C (stereo not drawn) [Compound 41, CC(C)N(C)C(=O)C=1C=C(NC(=O)C2CC=3C=CC=CC23)C=CC1C]",0.898 % of Cmp 1a and -4.45 % of Cmp 1a and -1.11 % of Cmp 1a,75.8841 % of Cmp 1a and 100.088 % of Cmp 1a and 66.5963 % of Cmp 1a,
"Cc1nnnn1C(=Cc1ccccc1)C(=O)N[C@@H](C)c1ccccc1 [Compound 17, C[C@H](NC(=O)C(=CC=1C=CC=CC1)N2N=NN=C2C)C=3C=CC=CC3]",4.36 % of Cmp 1a and -2.84 % of Cmp 1a and 2.54 % of Cmp 1a,61.7351 % of Cmp 1a and 85.7644 % of Cmp 1a and 78.6356 % of Cmp 1a,
"CCN(C(=O)c1cc(Cc2ccccc2)n[nH]1)c1ccc(F)cc1 [Compound 62, CCN(C(=O)C1=CC(CC=2C=CC=CC2)=NN1)C=3C=CC(F)=CC3]",3 % of Cmp 1a and 5.34 % of Cmp 1a and 3.55 % of Cmp 1a,74.8769 % of Cmp 1a and 70.0616 % of Cmp 1a and 70.7351 % of Cmp 1a,3 % of Cmp 1a and 5.34 % of Cmp 1a and 3.55 % of Cmp 1a
"Cc1noc(-c2ccc(C)c(NC(=O)CSc3nncs3)c2)n1 [Compound 65, CC1=NOC(=N1)C=2C=CC(C)=C(NC(=O)CSC3=NN=CS3)C2]",2.7 % of Cmp 1a and 1.38 % of Cmp 1a and -3.61 % of Cmp 1a,71.2308 % of Cmp 1a and 90.2803 % of Cmp 1a and 89.1818 % of Cmp 1a,
"COCC1(CNC(=O)NCc2ccccc2)OCCc2ccccc21 (stereo not drawn) [Compound 44, COCC1(CNC(=O)NCC=2C=CC=CC2)OCCC=3C=CC=CC31]",8 % of Cmp 1a and -1.67 % of Cmp 1a and 19 % of Cmp 1a,80.8112 % of Cmp 1a and 71.471 % of Cmp 1a and 86.0472 % of Cmp 1a,
"Cn1nc(-c2ccc(F)cc2F)cc1NC(=O)NCc1ccccn1 [Compound 42, CN1N=C(C=C1NC(=O)NCC=2C=CC=CN2)C=3C=CC(F)=CC3F]",0.111 % of Cmp 1a and 2.67 % of Cmp 1a and 15 % of Cmp 1a,73.5301 % of Cmp 1a and 76.7288 % of Cmp 1a and 79.4888 % of Cmp 1a,
"Cn1ccc(CNC(=O)Nc2cc(-c3cc(F)cc(F)c3)nn2C)c1 [Compound 39, CN1C=CC(CNC(=O)NC2=CC(=NN2C)C=3C=C(F)C=C(F)C3)=C1]",-2.56 % of Cmp 1a and -1.6 % of Cmp 1a and -1.54 % of Cmp 1a,63.6266 % of Cmp 1a and 84.5465 % of Cmp 1a and 97.4779 % of Cmp 1a,
"CCc1ocnc1C(=O)Nc1cccc(C(=O)NCc2ccccc2)c1 [Compound 29, CCC=1OC=NC1C(=O)NC=2C=CC=C(C2)C(=O)NCC=3C=CC=CC3]",-4.43 % of Cmp 1a and 1.9 % of Cmp 1a and 8 % of Cmp 1a,59.2373 % of Cmp 1a and 59.0417 % of Cmp 1a and 94.2662 % of Cmp 1a,
"CC(NC(=O)N1CCCCC1c1cnn(C)c1)c1nccs1 (stereo not drawn) [Compound 34, CC(NC(=O)N1CCCCC1C=2C=NN(C)C2)C3=NC=CS3]",-1.66 % of Cmp 1a and 6.32 % of Cmp 1a and -6 % of Cmp 1a,69.32 % of Cmp 1a and 71.8073 % of Cmp 1a and 90.0552 % of Cmp 1a,
"Cc1sc2ncn(NC(=O)c3csc4cncn34)c(=O)c2c1C [Compound 23, CC=1SC=2N=CN(NC(=O)C3=CSC4=CN=CN34)C(=O)C2C1C]",-1 % of Cmp 1a and 11 % of Cmp 1a and -1.45 % of Cmp 1a,92.3647 % of Cmp 1a and 68.6585 % of Cmp 1a and 94.6907 % of Cmp 1a,

# — publication PMC12775434, “Ultra-large virtual screening unveils potent agonists of the neuromodulatory orphan receptor GPR139” (Nature Communications, 2025)
